Experimental data reported in patent US12384749B2, “Onium salt of nitrogen-containing heteroaryl compound and pest control agent” (Nippon Soda Co., Ltd., priority 2019, dated 2025).

Legend:
Type in all cases: in vivo
Mythimna separata = test: Efficacy test against Mythimna separata (treated artificial feed); conditions: 1 μl of emulsion (I) (5% by mass active ingredient) mixed with 0.8 g artificial feed; second-instar larvae; 25° C.; after five days
Description: (§1) 5 parts by mass of a compound of the present invention, 93.6 parts by mass of dimethylformamide, and 1.4 parts by mass of polyoxyethylene alkyl aryl ether were mixed and dissolved to obtain an emulsion (1) containing 5% by mass of the active ingredient.
(§2) 93.6 parts by mass of dimethylformamide, and 1.4 parts by mass of polyoxyethylene alkyl aryl ether were mixed and dissolved to obtain an emulsion (II).
0.8 g of commercially-available artificial feed (Insect LFS, manufactured by Nosan Corporation) and 1 μl of the emulsion (I) were mixed well, and then 0.2 g of the mixture per treated area was packed into plastic test containers (each having a capacity of 1.4 ml) as test feeds.
Two second-instar larvae of Mythimna separata were left per treated area, and then the test containers were sealed with plastic covers. The test containers were placed in a thermostatic chamber at 25° C., and, after five days had passed therefrom, the mortality and the feed intake were measured. The test was repeated twice.
(§3) In addition, the test was conducted under the same conditions as described above, except that the emulsion (II) was used instead of the emulsion (I), and evaluated as a solvent control area.
The compounds A-2, A-3, A-4, A-9, A-10, A-11, A-15, and A-16 were subjected to an efficacy test against Mythimna separata. […] The mortality was calculated in accordance with the following equation. Mortality (%)=(Died insect number/Tested insect number)×100

Spodoptera litura = test: Efficacy test against Spodoptera litura (cabbage leaf dip); conditions: foliar, 144 h, 125 ppm by mass, cabbage leaf immersed 30 seconds, second-instar larvae, 25° C., humidity 60%, after six days
Description: as §1
The emulsion (I) was diluted with water such that the amount of the compound of the present invention became 125 ppm by mass. A cabbage leaf was immersed in the diluted solution for 30 seconds. The cabbage leaf was air-dried and then put in a petri dish, followed by leaving five second-instar larvae of Spodoptera litura therein. The petri dish was placed in a thermostatic chamber at a temperature of 25° C. and a humidity of 60%. After six days had passed from leaving the larvae, life or death was assessed and the mortality was calculated. The test was repeated twice.

Helicoverpa armigera = test: Efficacy test against Helicoverpa armigera (cabbage leaf dip); conditions: foliar, 144 h, 125 ppm by mass, cabbage leaf immersed 30 seconds, second-instar larvae, 25° C., humidity 60%, after six days
Nilaparvata lugens = test: Efficacy test against Nilaparvata lugens (rice seedling dip); conditions: 240 h, 125 ppm by mass, rice seedling immersed 30 seconds, second-instar larvae, 25° C., humidity 65%, after ten days
Description: as §1
The emulsion (I) was diluted with water such that the amount of the compound of the present invention became 125 ppm by mass. A rice seedling was immersed in the diluted solution for 30 seconds, air-dried, and then placed in a plastic case, followed by leaving five second-instar larvae of Nilaparvata lugens therein. The plastic case was placed in a thermostatic chamber at a temperature of 25° C. and a humidity of 65%. After ten days had passed therefrom, life or death was assessed and the mortality was calculated. The test was repeated twice.

Tetranychus urticae = test: Efficacy test against Tetranychus urticae (spray on kidney bean); conditions: 125 ppm by mass sprayed on kidney bean; female adults removed after three days; living number counted ten days after spraying; 25° C., humidity 65%
Description: as §1, §2
Five female adults of Tetranychus urticae were left on primary leaves of kidney bean planted in a 3-sun pot. The emulsion (I) was diluted with water such that the amount of the compound of the present invention became 125 ppm by mass. The diluted solution was sprayed on the kidney bean and evaluated as a treated area. The 3-sun pot was placed in a thermostatic chamber at a temperature of 25° C. and a humidity of 65%, and after three days had passed from spraying, the female adults of Tetranychus urticae were removed to leave only laid eggs remaining on the leaves. After ten days had passed from spraying, the number of living Tetranychus urticae was counted. The test was repeated twice.
as §3
The control ratio was calculated in accordance with the following equation. Control ratio (%)=100×[1−Nt/Nc] […]

Aphis gossypii = test: Efficacy test against Aphis gossypii (spray on cucumber); conditions: 120 h, 125 ppm by mass sprayed on cucumber, first-instar larvae, 25° C., humidity 60%, after five days
Description: as §1
Cucumber was sown in a 3-sun pot. After ten days had passed from germination, a female adult of Aphis gossypii was left on the cucumber. On the next day, laid first-instar larvae were left, and the female adult was removed. The emulsion (I) was diluted with water such that the amount of the compound of the present invention became 125 ppm by mass. The diluted solution was sprayed on the cucumber. Then, the cucumber was placed in a thermostatic chamber at a temperature of 25° C. and a humidity of 60%. After five days had passed therefrom, life or death of Aphis gossypii was assessed and the mortality was calculated.

SMILES | mortality or feed intake relative to the feed intake at the solvent control area (Mythimna separata) | mortality at 125 ppm (Spodoptera litura) [%] | also measured
O=C([N-][n+]1ccccn1)c1ccc(-c2ccc(OC(F)(F)C(F)F)cc2)nc1 [Compound A-2] | 100% mortality of Mythimna separata or 10% or less of the feed intake |  | 
O=C([N-][n+]1ccccn1)c1ccc(-c2ccc(OCC(F)(F)F)nc2)nc1 [Compound A-3] | 100% mortality of Mythimna separata or 10% or less of the feed intake |  | 
O=C([N-][n+]1cnn(CC(F)(F)F)c1)c1ccc(-c2ccc(OC(F)(F)C(F)F)cc2)c(Cl)c1 [Compound A-4] | 100% mortality of Mythimna separata or 10% or less of the feed intake | ≥ 80 | 
Cn1cc[n+]([N-]C(=O)c2ccc(-c3ccc(OC(F)(F)C(F)F)cc3)cc2)c1 [Compound A-9] | 100% mortality of Mythimna separata or 10% or less of the feed intake | ≥ 80 | mortality at 125 ppm (Helicoverpa armigera): ≥ 90%
O=C([N-][n+]1ccsc1)c1ccc(-c2ccc(OC(F)(F)C(F)F)cc2)cc1 [Compound A-10] | 100% mortality of Mythimna separata or 10% or less of the feed intake |  | 
O=C([N-][n+]1ccccn1)c1ccc(-c2ccc(OC(F)(F)C(F)F)cc2)cc1 [Compound A-11] | 100% mortality of Mythimna separata or 10% or less of the feed intake | ≥ 80 | mortality at 125 ppm (Nilaparvata lugens): ≥ 80%
Cn1cc[n+]([N-]C(=O)c2ccc(-c3ccc(OC(F)(F)F)cc3)cc2)c1 [Compound A-13] |  | ≥ 80 | 
O=C([N-][n+]1ccncc1)c1ccc(-c2ccc(OC(F)(F)F)cc2)cc1 [Compound A-15] | 100% mortality of Mythimna separata or 10% or less of the feed intake |  | 
O=C([N-][n+]1ccccn1)c1ccc(-c2ccc(OC(F)(F)F)cc2)cc1 [Compound A-16] | 100% mortality of Mythimna separata or 10% or less of the feed intake |  | 
O=C([N-][n+]1ccccn1)c1ccc(C(F)(F)F)cc1 [Compound A-18] |  |  | control ratio (Tetranychus urticae): ≥ 90%
O=C([N-][n+]1ccncc1)c1ccc(C(F)(F)F)cc1 [Compound A-19] |  |  | mortality at 125 ppm (Aphis gossypii): ≥ 80%
